Laboratory results reported in publication PMC7893776, “Selecting an anti-malarial clinical candidate from two potent dihydroisoquinolones” (Malaria Journal, 2021).
Values joined by “and” are separate entries in the source; they are usually repeats but may differ in a detail not shown here. Identical values can stand only once.

Experiments:
[1] = Microsomal stability, human; assay type: in vitro ADME; conditions: for CLint in vivo: scaled up using PBSF
Method: The metabolic stability assay was performed by incubating compounds individually (0.8, 4, or 20 µM) with mouse, rat, dog and human liver microsomes (Fisher, 0.5 mg/mL protein concentration) at 37 °C. The metabolic reaction was initiated by the addition of a NADPH-regenerating system and quenched at various time points by the addition of acetonitrile according to a published method.
The remaining concentration of each compound was measured as a ratio of peak area to the internal standard. The log peak area ratio was plotted vs. time (h), and the slope was determined to calculate the elimination rate constant [k = (− 2.303) * slope]. If deviation from first order kinetics was evident, only the initial linear portion of the plot was used to determine the rate constate, k. The half-life (h) was calculated as t1/2 = 0.693/k. Intrinsic clearance in vitro was calculated as CLintin vitro = (1000)*(0.693/t1/2*60)/0.5, where microsomal concentration in the reaction solution was 0.5 mg/mL; 1000 and 60 are scaling factors for volume (µL) and time (min), respectively. The intrinsic in vitro clearance was scaled to the intrinsic in vivo clearance using physiology based scaling factor (PBSF): CLint in vivo= CLint in vitro *PBSF: (microsome protein/gram liver) * (gram liver/kg b.w.), with PBSF: 47 (mouse), 47(rat), 58 (dog), 32 (human); and liver weight proportions: 54.9 (mouse), 36.6 (rat), 32.9 (dog) 25.7 (human).

[2] = target: T1, CYP1A2 (Homo sapiens, UniProt P05177); test: CYP450 inhibition, CYP1A2; assay type: in vitro ADME; conditions: for inhibition of CYP1A2: 10 µM, probe substrate Ethoxy-resorufin, replicate measurements
T1 construct: purchased Cypex Ltd (Bactosomes)
T1 sequence (P05177 1-516): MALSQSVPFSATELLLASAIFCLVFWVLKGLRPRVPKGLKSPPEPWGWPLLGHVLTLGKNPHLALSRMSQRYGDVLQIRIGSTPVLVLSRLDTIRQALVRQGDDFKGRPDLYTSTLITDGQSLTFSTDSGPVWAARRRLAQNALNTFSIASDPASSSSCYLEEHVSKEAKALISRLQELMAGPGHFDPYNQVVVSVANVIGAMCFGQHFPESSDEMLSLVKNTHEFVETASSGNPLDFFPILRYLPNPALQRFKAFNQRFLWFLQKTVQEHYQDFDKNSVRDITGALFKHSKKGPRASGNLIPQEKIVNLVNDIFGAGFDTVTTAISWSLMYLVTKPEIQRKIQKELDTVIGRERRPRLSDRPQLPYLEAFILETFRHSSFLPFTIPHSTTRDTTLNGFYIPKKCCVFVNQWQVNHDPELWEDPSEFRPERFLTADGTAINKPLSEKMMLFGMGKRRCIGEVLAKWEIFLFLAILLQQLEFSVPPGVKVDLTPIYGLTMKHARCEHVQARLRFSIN

[3] = human microsomes, 0.8 µM, independent replicate to Table 4
[4] = human microsomes, 4 µM, independent replicate to Table 4
[5] = human microsomes, 20 µM, independent replicate to Table 4
[6] = human microsomes, 20, 4, 0.8 µM

SMILES | CLint in vitro [1, 3] | CLint in vivo ([1]; human microsomes, 0.8 µM) | CLint in vitro [1, 4] | CLint in vivo ([1]; human microsomes, 4 µM) | CLint in vitro [1, 5] | CLint in vivo ([1]; human microsomes, 20 µM) | inhibition of CYP1A2 [2] | CLint ([1]; human microsomes, 0.8 µM) | t1/2 ([1]; human microsomes, 0.8 µM) | CYP1A2 inhibition, in words [2] | other results
N#Cc1cc(NC(=O)C2c3ccccc3C(=O)N(CC(F)(F)F)C2c2cccnc2)ccc1F (racemic) [(r)-SJ733] | 12.7 ± 0.3 µl/min/mg protein | 11.5 ± 0.3 mL/min/kg | 11.5 ± 0.3 µl/min/mg protein | 10.3 ± 1.2 mL/min/kg | <7 µl/min/mg protein | <5.2 mL/min/kg | 10.8% |  |  |  | 
N#Cc1cc(NC(=O)[C@H]2c3ccccc3C(=O)N(CC(F)(F)F)[C@@H]2c2cn[nH]c2)ccc1F [(+)-SJ311] |  |  |  |  |  |  |  | < 7 µl/min/mg protein | > 4 h |  | 
N#Cc1cc(NC(=O)C2c3ccccc3C(=O)N(CC(F)(F)F)C2c2cn[nH]c2)ccc1F (racemic) [(r)-SJ311] |  |  |  |  |  |  | 5% and 0.5% |  |  |  | CLint in vitro [1, 6]: <7 µl/min/mg protein; CLint in vivo [1, 6]: <5.2 mL/min/kg
N#Cc1cc(NC(=O)[C@H]2c3ccccc3C(=O)N(CC(F)(F)F)[C@@H]2c2cccnc2)ccc1F [(+)-SJ733] | 42.6 ± 0.7 µl/min/mg protein | 38.4 ± 0.7 mL/min/kg | 34.5 ± 0.6 µl/min/mg protein | 31.0 ± 0.5 mL/min/kg | 20.6 ± 0.5 µl/min/mg protein | 18.5 ± 0.4 mL/min/kg |  | 45.5 ± 4.0 µl/min/mg protein | 0.5 ± 0.1 h |  | 
N#Cc1cc(NC(=O)[C@H]2c3ccccc3C(=O)N(CC(F)(F)F)[C@@H]2c2cccnc2)ccc1F (racemic) [SJ733] |  |  |  |  |  |  |  |  |  | weak inhibitors | 
N#Cc1cc(NC(=O)[C@H]2c3ccccc3C(=O)N(CC(F)(F)F)[C@@H]2c2cn[nH]c2)ccc1F [SJ311] |  |  |  |  |  |  |  |  |  | weak inhibitors | 
